One molecule from patent US8282968B2, “Bioactive water fraction from Gomphostemma niveum” (The Director General, Defence Research and Development …, priority 2005, dated 2012) can be followed below.

Each structure is given as a SMILES string.

This assay has as its system P. falciparum. As to the kind of experiment: In vitro evaluation of anti-malarial activity (schizont maturation inhibition). Format: cell-based. The settings on record: Plasmodium falciparum, 24 h. The source says:
All the tests are run in duplicates with in 96 well flat bottomed tissue culture plate and double dilutions are made for each of the test compound with individual control wells only with the RPMI 1640 and human serum supplement.

The IC90 is the concentration at which the effect reaches the 90% level. High values mean a need for much substance, low ones an effect from little substance. The molecule `CCN(CC)CCCC(C)Nc1ccnc2cc(Cl)ccc12` (stereo not shown) [Chloroquine] yielded an IC90 of 46 nM.
